What was measured:
human cathepsin F = target: T1, human cathepsin F (Homo sapiens, UniProt Q9UBX1); test: Cathepsin F assay (hCat F); assay type: biochemical; conditions: Z-Phe-Arg-AMC substrate, pH 5.5, 15 min preincubation; read-out: hCat F (IP (nM))
T1 sequence (Q9UBX1 271-484): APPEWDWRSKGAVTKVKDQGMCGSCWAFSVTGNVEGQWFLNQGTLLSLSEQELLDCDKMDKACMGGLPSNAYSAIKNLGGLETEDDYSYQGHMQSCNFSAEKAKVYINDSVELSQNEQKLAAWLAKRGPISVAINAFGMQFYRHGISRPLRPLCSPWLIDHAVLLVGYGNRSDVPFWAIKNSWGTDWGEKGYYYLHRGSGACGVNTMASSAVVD
Experimental: Cathepsin F assay (hCat F)
(§1) Serial dilutions (1/3) from 500 μM down to 0.025 μM of test compounds were prepared in dimethyl sulfoxide (DMSO). Then 0.5 μL of DMSO from each dilution were added to 18.75 μL of assay buffer (MES, 50 mM (pH 5.5); EDTA, 2.5 mM; DTT, 2.5 mM and 10% DMSO) containing human cathepsin F (10 nM) in assay buffer solution. The assay solutions were mixed for 5-10 seconds on a shaker plate and incubated for 15 minutes at room temperature. Z-Phe-Arg-AMC (8 μM) in 6.25 μL of assay buffer was added to the assay solutions. Hydrolysis of the coumarin leaving group (AMC) was followed by spectrofluorometry (Exλ=360 nm; Emλ=460 nm) for 20 minutes. Percent of inhibition were calculated by fitting experimental values to standard mathematical model for dose response curve.

human cathepsin K = human cathepsin K (UniProt P43236); test: Cathepsin K Assay (hrbCat K); assay type: biochemical; conditions: Z-Leu-Arg-AMC substrate, pH 5.5, 15 min preincubation; read-out: hrbCat K (IP (nM))
Experimental: Cathepsin K Assay (hrbCat K)
as §1, with “Then” for “Serial dilutions (1/3) from 500 μM down to 0.025 μM of test compounds were prepared in dimethyl sulfoxide (DMSO). Then”, “K (0.4” for “F (10”, “Z-Leu-Arg-AMC” for “Z-Phe-Arg-AMC”, “30” for “20”

SMILES | IC50 (human cathepsin F) [nM] | IC50 (human cathepsin K) [nM]
CC(Oc1ncccc1-c1nc([C@@H]2CCCC[C@H]2C(=O)NC2(C#N)CC2)c(-c2ccc(N3CCS(=O)(=O)CC3)cc2)s1)C(F)(F)F (mixture of isomers) [Example 134, (1R,2R)-N-(1-cyanocyclopropyl)-2-(5-(4-(1,1-dioxidothiomorpho-lino)phenyl)-2-(2-(((S and R)-1,1,1-trifluoropropan-2-yl)oxy)pyridin-3-yl)thiazol-4-yl)cyclohexane-carboxamide] | 3330 | 2.8
CC(Oc1ccc(-c2nc([C@@H]3CCCC[C@H]3C(=O)NC3(C#N)CC3)c(-c3ccc(N4CCS(=O)(=O)CC4)cc3)s2)cn1)C(F)(F)F (mixture of isomers) [Example 137, (1R,2R)-N-(1-cyanocyclopropyl)-2-(5-(4-(1,1-dioxidothiomorpho-lino)phenyl)-2-(6-(((S and R)-1,1,1-trifluoropropan-2-yl)oxy)pyridin-3-yl)thiazol-4-yl)cyclohexane-carboxamide] | 3330 | 1.2
N#CC1(NC(=O)[C@@H]2CCCC[C@H]2c2nc(C3CCOC3)sc2-c2ccc(N3CCS(=O)(=O)CC3)cc2)CC1 (mixture of isomers) [Example 147, (1R,2R)-N-(1-cyanocyclopropyl)-2-(5-(4-(1,1-dioxidothiomorpho-lino)phenyl)-2-((R and S)-tetrahydrofuran-3-yl)thiazol-4-yl)cyclohexane-carboxamide] | 1000 | 4.5
N#CC1(NC(=O)[C@@H]2CCCC[C@H]2c2nc(C3CCCCO3)sc2-c2ccc(N3CCS(=O)(=O)CC3)cc2)CC1 (mixture of isomers) [Example 148, (1R,2R)-N-(1-cyanocyclopropyl)-2-(5-(4-(1,1-dioxidothiomorpho-lino)phenyl)-2-((R and S)-tetrahydro-2H-pyran-2-yl)thiazol-4-yl)cyclohexane-carboxamide] | 1930 | 2.6
N#CC1(NC(=O)[C@@H]2CCCC[C@H]2c2nc(C3CCC(F)(F)C3)sc2-c2ccc(N3CCS(=O)(=O)CC3)cc2)CC1 (mixture of isomers) [Example 154, (1R,2R)-N-(1-cyanocyclopropyl)-2-(2-((R and S)-3,3-difluorocyclopentyl)-5-(4-(1,1-dioxidothiomorpho-lino)phenyl)thiazol-4-yl)cyclohexane-carboxamide] | 1000 | 4.5
CS(=O)(=O)c1ccc(-c2oc(-c3ccccc3)nc2C2CCC(F)(F)CC2C(=O)NCC#N)cc1 (racemic) [Example 162, (1R,2R and 1S,2S)-N-(cyanomethyl)-5,5-difluoro-2-(5-(4-(methylsulfonyl)phenyl)-2-phenyloxazol-4-yl)cyclohexane-carboxamide] | 49 | 2.7
CS(=O)(=O)c1ccc(-c2oc(-c3ccc(F)cc3)nc2C2CCC(F)(F)CC2C(=O)NCC#N)cc1 (racemic) [Example 163, (1R,2R and 1S,2S)-N-(cyanomethyl)-5,5-difluoro-2-(2-(4-fluorophenyl)-5-(4-(methylsulfonyl)phenyl)oxazol-4-yl)cyclohexane-carboxamide] | 26 | 2.9
N#CC(NC(=O)[C@@H]1CCCC[C@H]1c1nc(-c2ccc(F)cn2)sc1-c1ccc(N2CCS(=O)(=O)CC2)cc1)C(F)(F)F (mixture of isomers) [Example 215, (1R,2R)-N-((S and R)-1-cyano-2,2,2-trifluoroethyl)-2-(5-(4-(1,1-dioxidothiomorpho-lino)phenyl)-2-(5-fluoropyridin-2-yl)thiazol-4-yl)cyclohexane-carboxamide] | 60 | 2.4
N#CC1(NC(=O)[C@@H]2CCCC[C@H]2c2nc(C(O)C(F)(F)F)sc2-c2ccc(N3CCS(=O)(=O)CC3)cc2)CC1 (mixture of isomers) [Example 228, (1R,2R)-N-(1-cyanocyclopropyl)-2-(5-(4-(1,1-dioxidothiomorpho-lino)phenyl)-2-((R and S)-2,2,2-trifluoro-1-hydroxyethyl)thia-zol-4-yl)cyclohexane-carboxamide] | 5390 | 5.1
C[C@@H](C#N)NC(=O)[C@@H]1CCCC[C@H]1c1nc(C(O)C(F)(F)F)sc1-c1ccc(N2CCS(=O)(=O)CC2)cc1 (mixture of isomers) [Example 229, (1R,2R)-N-((S)-1-cyanoethyl)-2-(5-(4-(1,1-dioxidothiomorpho-lino)phenyl)-2-((R and S)-2,2,2-trifluoro-1-hydroxyethyl)thia-zol-4-yl)cyclohexane-carboxamide] | 757 | 2.6
Cc1nc(C2CCCCC2C(=O)NCC#N)c(-c2ccc(N3CCS(=O)(=O)CC3)cc2)s1 (racemic) [Example 245, N-(cyanomethyl)-2-(5-(4-(1,1-dioxidothiomorpho-lino)phenyl)-2-methylthiazol-4-yl)cyclohexane-carboxamide] | 3280 | 5.4
Cc1nc(C2CCCCC2C(=O)NCC#N)c(-c2ccc(C(=O)N3CCOCC3)cc2)s1 (racemic) [Example 246, N-(cyanomethyl)-2-(2-methyl-5-(4-(morpholine-4-carbonyl)phenyl)thi-azol-4-yl)cyclohexane-carboxamide] | > 10000 | 38.2
CC1CC1(C#N)NC(=O)[C@@H]1CCCC[C@H]1c1nc(-c2ccc(F)cn2)sc1-c1ccc(N2CCS(=O)(=O)CC2)cc1 (single isomer, unassigned) [Example 203, (1R,2R)-N-((1R,2S or 1R,2R or 1S,2S or 1S,2R)-1-cyano-2-methylcyclopropyl)-2-(5-(4-(1,1-dioxidothiomorpho-lino)phenyl)-2-(5-fluoropyridin-2-yl)thiazol-4-yl)cyclohexane-carboxamide] | – | 161
CC(C)(O)C(C#N)NC(=O)[C@@H]1CCCC[C@H]1c1nc(-c2ccc(F)cn2)sc1-c1ccc(N2CCS(=O)(=O)CC2)cc1 (single isomer, unassigned) [Example 226, (1R,2R)-N-((S or R)-1-cyano-2-hydroxy-2-methylpropyl)-2-(5-(4-(1,1-dioxidothiomorpho-lino)phenyl)-2-(5-fluoropyridin-2-yl)thiazol-4-yl)cyclohexane-carboxamide] | ≥ 10000 | –
CC(C)(O)C(C#N)NC(=O)[C@@H]1CCCC[C@H]1c1nc(-c2ccc(F)cn2)sc1-c1ccc(N2CCS(=O)(=O)CC2)cc1 (single isomer, unassigned) [Example 227, (1R,2R)-N-((R or S)-1-cyano-2-hydroxy-2-methylpropyl)-2-(5-(4-(1,1-dioxidothiomorpho-lino)phenyl)-2-(5-fluoropyridin-2-yl)thiazol-4-yl)cyclohexane-carboxamide] | – | 59.5
N#CC1(NC(=O)[C@@H]2C[C@@H](F)CC[C@H]2c2nc(C3CC(F)C3)sc2-c2ccc(N3CCS(=O)(=O)CC3)cc2)CC1 (single isomer, unassigned) [Example 235, (1R,2R,5S)-N-(1-cyanocyclopropyl)-2-(5-(4-(1,1-dioxidothiomorpho-lino)phenyl)-2-((1R,3R or 1S,3S)-3-fluorocyclobutyl)thiazol-4-yl)-5-fluorocyclohexane-carboxamide] | – | 4.2
Cc1ncc(-c2nc([C@@H]3CCCC[C@H]3C(=O)NC3(C#N)CC3)c(-c3ccc(N4CCS(=O)(=O)CC4)cc3)s2)s1 [Example 52, (1R,2R)-N-(1-cyanocyclopropyl)-2-(5-(4-(1,1-dioxidothiomorpho-lino)phenyl)-2′-methyl-[2,5′-bithiazol]-4-yl)cyclohexane-carboxamide] | – | 2.3
N#CC1(NC(=O)[C@@H]2CCC(F)(F)C[C@H]2c2nc(-c3cncc(F)c3)sc2-c2ccc(N3CCS(=O)(=O)CC3)cc2)CC1 [Example 108, (1R,2R)-N-(1-cyanocyclopropyl)-2-(5-(4-(1,1-dioxidothiomorpho-lino)phenyl)-2-(5-fluoropyridin-3-yl)thiazol-4-yl)-4,4-difluorocyclohexane-carboxamide] | – | 1.7
CC(C)(C#N)NC(=O)[C@@H]1C[C@@H](F)CC[C@H]1c1nc(-c2ccc(F)cn2)sc1-c1ccc(N2CCS(=O)(=O)CC2)cc1 [Example 140, (1R,2R,5S)-N-(2-cyanopropan-2-yl)-2-(5-(4-(1,1-dioxidothiomorpho-lino)phenyl)-2-(5-fluoropyridin-2-yl)thiazol-4-yl)-5-fluorocyclohexane-carboxamide] | – | 66.7
N#CC1(NC(=O)[C@@H]2CCC(F)(F)C[C@H]2c2nc(-c3cncc(F)c3)sc2-c2ccc(N3CCS(=O)(=O)CC3)cc2)CC1 [Example 218, (1R,2R)-N-(1-cyanocyclopropyl)-2-(5-(4-(1,1-dioxidothiomorpho-lino)phenyl)-2-(5-fluoropyridin-3-yl)thiazol-4-yl)-4,4-difluorocyclohexane-carboxamide] | – | 4.2

Source: patent US9573913B2, “Cathepsin cysteine protease inhibitors” (Merck Sharp & Dohme Corp., priority 2013, dated 2017)
